Test: logP by chromatography, internally standardized with toluene and triphenylene
Type: physicochemical
Details: pH = 7
Procedure: Microblends of herbicides were prepared using melts of mixtures of nonionic block copolymer and ethoxylated surfactants. Specifically, tristyrylphenol etoxylate (Soprophor BSU, Rhodia) was used in combination with Pluronic P123 (PEO20-PPO69-PEO20), The list of the herbicides and corresponding log P values (the log P values were measured according procedure described by Donovan and Pescatore, J. Chromatography A 2002, 952, 47-61) are presented in Table 24. All log P values were measured at pH 7, except for clethodim, measured at pH 2. First, a stock blend of Pluronic P123 and Soprophor BSU was prepared by melting together 50 g of Pluronic P123 with 50 g of Soprophor BSU at 70° C. to form a clear, homogeneous melt. Composition of the copolymer/surfactant mixture was P123:Soprophor=1:1 by weight. […] The mixtures were heated at 70° C. for 10 min and shaken.

Molecule | logP Average
Trisulfuron-methyl | 0.510
COP(=S)(OC)Oc1c(Cl)cc(C)cc1Cl [Tolclofos-methyl] | 4.418
